For four compounds, IC50 results are on record in paper PMC6190683 (Bioorganic & medicinal chemistry letters, 2017).

The structures appear in SMILES notation. Some results are limits rather than exact numbers.

For the test, the target named is Mtb NadE (Mycobacterium tuberculosis, UniProt P9WJJ3). As to the kind of experiment: ammonia-dependent Mtb NadE inhibition assay. It is filed as biochemical.
Mtb NadE, sequence (P9WJJ3 whole entry): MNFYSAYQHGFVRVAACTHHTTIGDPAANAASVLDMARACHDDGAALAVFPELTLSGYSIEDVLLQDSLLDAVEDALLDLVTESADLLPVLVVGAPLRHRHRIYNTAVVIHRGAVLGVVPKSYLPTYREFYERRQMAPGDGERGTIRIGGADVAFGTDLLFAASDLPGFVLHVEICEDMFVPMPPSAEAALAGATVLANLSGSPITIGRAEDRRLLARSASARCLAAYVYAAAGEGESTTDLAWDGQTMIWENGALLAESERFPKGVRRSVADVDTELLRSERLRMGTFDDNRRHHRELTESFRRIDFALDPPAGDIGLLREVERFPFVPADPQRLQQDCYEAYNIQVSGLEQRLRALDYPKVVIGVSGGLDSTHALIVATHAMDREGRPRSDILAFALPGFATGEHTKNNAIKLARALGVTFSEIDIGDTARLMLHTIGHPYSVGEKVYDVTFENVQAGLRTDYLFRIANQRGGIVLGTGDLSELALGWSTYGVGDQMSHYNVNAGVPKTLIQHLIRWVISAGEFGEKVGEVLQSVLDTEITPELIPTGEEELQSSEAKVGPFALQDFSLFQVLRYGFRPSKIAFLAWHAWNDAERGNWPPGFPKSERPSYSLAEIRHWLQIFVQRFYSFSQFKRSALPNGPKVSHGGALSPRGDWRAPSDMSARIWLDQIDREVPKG
The IC50 is the concentration needed to halve the response being measured. The low end stands for greater potency in that assay, the high end for weaker potency in that assay. For the compound `COc1ccc(NS(=O)(=O)c2ccc(NC(=O)Nc3ccc([N+](=O)[O-])cc3)cc2)cc1` [Compound 4d], the IC50 is > 200 µM.

`O=C(Nc1ccc([N+](=O)[O-])cc1)Nc1ccc(S(=O)(=O)Nc2ccccc2)cc1` [Compound 4l]: the half-maximal inhibitory concentration (IC50) is > 200 µM.

For `O=C(Nc1ccc([N+](=O)[O-])cc1)Nc1ccc(S(=O)(=O)Nc2cccc(C(F)(F)F)c2)cc1` [Compound 4h], the IC50 was > 200 µM.

In the case of `O=C(Nc1ccc([N+](=O)[O-])cc1)Nc1ccc(S(=O)(=O)Nc2ccc([N+](=O)[O-])cc2)cc1` [Compound 4f], the half-inhibitory concentration (IC50) is > 200 µM.
